Among the test systems are BT-549; SK-MEL-28; A498; NCI-H226; Hs-578T; OVCAR-3; TK-10; CCRF-CEM; SF-539; LOX IMVI; SNB-19; OVCAR-8; OVCAR-4; NCI/ADR-RES; COLO 205; ACHN; NCI-H522; K562; MCF7; U-251.
Holding throughout (assay): NCI anticancer screen, dose series, 48 h

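Where inhibition never reached the appropriate level, the endpoint shown equals the highest concentration tested. Otherwise, values were interpolated linearly from a five-concentration, 48-hour dose response in 96-well plates. The concentration for 50% growth inhibition is given as GI50.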 Active and inactive are the calls of the source. Rule as the data show it: active = GI50 up to about 1.1 µM and inactive = higher.

In the case of `CN(C)CCn1c(=O)nc2c3c(c([N+](=O)[O-])ccc31)Nc1ccc(O)cc1-2`, the GI50 is 14.5 µM (inactive) in the experiment with BT-549; 14.8 µM (inactive) in the experiment with SK-MEL-28; 6.32 µM (inactive) in the experiment on A498; 3.37 µM (inactive) with NCI-H226; 3.95 µM (inactive) in the experiment with Hs-578T; 2.01 µM (inactive) in the experiment on OVCAR-3. Further, the GI50 is 4.66 µM (inactive) with TK-10; 0.948 µM (active) in the experiment on CCRF-CEM; 1.7 µM (inactive) with SF-539; 1.27 µM (inactive) in the experiment with LOX IMVI; 2.03 µM (inactive) in the experiment on SNB-19; 1.82 µM (inactive) in the experiment on OVCAR-8. Besides, the GI50 in the experiment on OVCAR-4 was 9.68 µM (inactive); with NCI/ADR-RES it was 34.2 µM (inactive); in the experiment with COLO 205, 2.72 µM (inactive); with ACHN it was 3.44 µM (inactive); in the experiment with NCI-H522, 1.43 µM (inactive); with K562, 2.41 µM (inactive). The GI50 in the experiment with MCF7 was 1.32 µM (inactive); in the experiment on U-251 it was 1.53 µM (inactive).

As to `COc1cc2c(cc1OC)C(=O)N(c1ccc(OCCN3CCCC3)cc1)C2`, the GI50 in the experiment on BT-549, with SK-MEL-28, with A498, with NCI-H226, in the experiment with Hs-578T and in the experiment with OVCAR-3 was > 100 µM (inactive) in each case. The GI50 in the experiment with TK-10, in the experiment with CCRF-CEM, in the experiment with SF-539, in the experiment on LOX IMVI, in the experiment with SNB-19 and with OVCAR-8 was > 100 µM (inactive) each time. Besides, the GI50 in the experiment with OVCAR-4, in the experiment with NCI/ADR-RES, in the experiment on COLO 205, in the experiment with ACHN, with NCI-H522 and in the experiment with K562 was > 100 µM (inactive) each time. In addition, the GI50 with MCF7 and with U-251 was > 100 µM (inactive) each time.

For `COc1ccc2c(c1)O[C@@H]1C(O)Oc3cc(OC)c(OC)cc3[C@]1(O)C2=O` (stereo not given in full), the GI50 was 12.6 µM (inactive) with BT-549; > 100 µM (inactive) in the experiment on SK-MEL-28; 82.6 µM (inactive) in the experiment on A498; 10.4 µM (inactive) with NCI-H226; 20.2 µM (inactive) in the experiment with Hs-578T; > 100 µM (inactive) in the experiment on OVCAR-3. Further, the GI50 is > 100 µM (inactive) with TK-10; 38.9 µM (inactive) in the experiment on CCRF-CEM; > 100 µM (inactive) with SF-539; 29.9 µM (inactive) in the experiment on LOX IMVI; > 100 µM (inactive) in the experiment on SNB-19; 94.6 µM (inactive) in the experiment with OVCAR-8. For the same compound, the GI50 is 35.1 µM (inactive) in the experiment on OVCAR-4; 30.4 µM (inactive) in the experiment with NCI/ADR-RES; 95.1 µM (inactive) in the experiment on COLO 205; > 100 µM (inactive) in the experiment with ACHN; 5.33 µM (inactive) in the experiment with NCI-H522; 42.9 µM (inactive) with K562. For the same compound, the GI50 in the experiment on MCF7 is 55.1 µM (inactive); with U-251 it was 59 µM (inactive).

As to `O=C(O)CCC(=O)C(=O)O` [ALPHA-KETOGLUTARIC ACID], the GI50 in the experiment on BT-549, in the experiment on SK-MEL-28, with A498, in the experiment with NCI-H226, with Hs-578T and in the experiment with OVCAR-3 was > 100 µM (inactive) in each case. The GI50 with TK-10, in the experiment on CCRF-CEM, in the experiment with SF-539, in the experiment on LOX IMVI, with SNB-19 and in the experiment with OVCAR-8 was > 100 µM (inactive) throughout. Besides, the GI50 in the experiment on OVCAR-4, in the experiment with NCI/ADR-RES, with COLO 205, with ACHN, with NCI-H522 and with K562 was > 100 µM (inactive) in each case. Moreover, the GI50 with MCF7 and in the experiment with U-251 was > 100 µM (inactive) each time.

As for `CC[C@]12CCCN3CCc4c(n(c5ccccc45)C(=O)C1)[C@@H]32` [VINBURNINE], the GI50 in the experiment with BT-549 is 24.7 µM (inactive); in the experiment with SK-MEL-28 it was > 36.5 µM (inactive); in the experiment with A498 it was 14.4 µM (inactive); with NCI-H226, > 83.8 µM (inactive); with Hs-578T, 9.33 µM (inactive); with OVCAR-3, 2.44 µM (inactive). Moreover, the GI50 was 12.5 µM (inactive) in the experiment on TK-10; 1.31 µM (inactive) with CCRF-CEM; 7.91 µM (inactive) in the experiment with SF-539; 10 µM (inactive) in the experiment with LOX IMVI; 14.5 µM (inactive) in the experiment on SNB-19; 15.5 µM (inactive) in the experiment with OVCAR-8. Further, the GI50 in the experiment with OVCAR-4 is 18.2 µM (inactive); in the experiment on NCI/ADR-RES, 3.25 µM (inactive); in the experiment on COLO 205, 4.43 µM (inactive); with ACHN it was 32.4 µM (inactive); in the experiment with NCI-H522 it was 2.32 µM (inactive); in the experiment on K562 it was 2.9 µM (inactive). The GI50 in the experiment on MCF7 is 3.51 µM (inactive); in the experiment with U-251, 4.88 µM (inactive).

Source of the values: ChEMBL document CHEMBL1201862, “PubChem BioAssay data set” (2004).
